{"source": "patent US12371454B2", "about": "“Cyclic peptide compound having Kras inhibitory action” (priority 2019, dated 2025)", "note": "Starred links: 1 amine or outer side, 2 acyl side, 3 side chain; linkers in the order of their positions; H or OH if unused. Positions of bridges follow the written chain, without caps; N, C: chain ends. Non-standard residues stand in square brackets, D forms with d. Residues, ends and D or L forms follow the SMILES beside them. *: point of attachment. hPhe(3-Cl-4-CF3) = N[C@@H](CCc1ccc(C(F)(F)F)c(Cl)c1)C(=O)O; NMePhe(4-CF3) = CN[C@@H](Cc1ccc(C(F)(F)F)cc1)C(=O)O; NMePhe(4-Me) = CN[C@@H](Cc1ccc(C)cc1)C(=O)O; NMedβ3hAla = C[C@H](CC(=O)[*:2])N(C)[*:1]; NMePhe(2-F) = CN[C@@H](Cc1ccccc1F)C(=O)O; NMeGly(cPent) = CN[C@H](C(=O)O)C1CCCC1; NMeCha = CN[C@@H](CC1CCCCC1)C(=O)O; NMeChg = CN[C@H](C(=O)O)C1CCCCC1; NMeF = CN[C@@H](Cc1ccccc1)C(=O)O; NMeI = CC[C@H](C)[C@H](NC)C(=O)O; dNMeF = CN[C@H](Cc1ccccc1)C(=O)O; Cha = N[C@@H](CC1CCCCC1)C(=O)O; NMeD = CN[C@@H](CC(=O)O)C(=O)O; dNMeD = CN[C@H](CC(=O)O)C(=O)O; Benzyl(4-Cl) = Clc1ccc(C*)cc1; NMeL = CN[C@@H](CC(C)C)C(=O)O; NMeV = CN[C@H](C(=O)O)C(C)C; d(β3hA) = C[C@@H](N)CC(=O)O; Morpholide = C1CN(*)CCO1; NMeA = CN[C@@H](C)C(=O)O; NMeAib = CNC(C)(C)C(=O)O; Piperidide = C1CCN(*)CC1; Pyrrolidide = C1CCN(*)C1; dNMeA = CN[C@H](C)C(=O)O; Ac5c = NC1(C(=O)O)CCCC1; Aze = O=C(O)[C@@H]1CCN1; Ac3c = NC1(C(=O)O)CC1; Sar = CNCC(=O)O", "data": [{"target": "T1, Kras and SOS1 (biotin-tagged human Kras loaded with GDP, His-tagged human SOS1) (Homo sapiens, UniProt P01116, G12D)", "T1 construct": "made in house; host or cells: E. coli (stated for Kras only)", "T1 sequence (P01116 1-188 isoform P01116-2 G12D)": "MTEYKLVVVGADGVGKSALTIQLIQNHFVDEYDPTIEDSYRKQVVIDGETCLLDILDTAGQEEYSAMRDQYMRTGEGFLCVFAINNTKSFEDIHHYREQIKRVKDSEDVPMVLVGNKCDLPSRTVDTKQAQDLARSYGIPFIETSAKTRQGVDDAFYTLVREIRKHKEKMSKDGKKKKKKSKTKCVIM", "test": "Protein-protein interaction inhibition between Kras and SOS1 (KrasGl2D-SOS PPI) using AlphaScreen", "format": "binding", "conditions": "AlphaScreen; biotin-tagged human Kras loaded with GDP, His-tagged human SOS1; read-out: KRAS G12D-SOS PPI IC50", "procedure,_shortened": "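Donor beads (nickel) hold His-SOS1; acceptor beads (streptavidin) hold biotin-Kras bound to GDP. Signal measured at 520-620 nm following 680 nm excitation.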", "units": {"IC50": "nM"}, "values": [{"smiles": "CC[C@H](C)[C@@H]1NC(=O)[C@H](C)N(C)C(=O)C[C@@H](C(=O)N2CCCCC2)N(C)C(=O)[C@H](C2CCCCC2)N(C)C(=O)C2(CCCC2)NC(=O)[C@@H]2CCCN2C(=O)[C@H](COCc2ccc(Cl)cc2)NC(=O)CN(C)C(=O)[C@H](CC2CCCCC2)N(C)C(=O)CN(C)C(=O)CN(C)C1=O", "note": "[Compound 2044] ([NMeA]I[Sar][Sar][NMeCha][Sar]S(Benzyl(4-Cl))P[Ac5c][NMeChg][NMeD]-Piperidide; lactam N-11)", "IC50": 7.9}, {"smiles": "CC[C@H](C)[C@@H]1NC(=O)[C@H](CC(C)C)N(C)C(=O)C[C@@H](C(=O)N2CCCCC2)N(C)C(=O)[C@H](C(C)C)N(C)C(=O)C2(CC2)NC(=O)[C@@H]2CCCN2C(=O)[C@H](CCc2ccc(C(F)(F)F)c(Cl)c2)NC(=O)CN(C)C(=O)[C@H](CC2CCCCC2)N(C)C(=O)CN(C)C(=O)CN(C)C1=O", "note": "[Compound 468] ([NMeL]I[Sar][Sar][NMeCha][Sar][hPhe(3-Cl-4-CF3)]P[Ac3c][NMeV][NMeD]-Piperidide; lactam N-11)", "IC50": 2.5}, {"smiles": "CC[C@H](C)[C@@H]1NC(=O)[C@H](CC(C)C)N(C)C(=O)C[C@@H](C(=O)N2CCOCC2)N(C)C(=O)[C@H](C2CCCCC2)N(C)C(=O)C2(CCCC2)NC(=O)[C@@H]2CCCN2C(=O)[C@H](CCc2ccc(C(F)(F)F)c(Cl)c2)NC(=O)CN(C)C(=O)[C@H](CC2CCCCC2)N(C)C(=O)CN(C)C(=O)CN(C)C1=O", "note": "[Compound 1333] ([NMeL]I[Sar][Sar][NMeCha][Sar][hPhe(3-Cl-4-CF3)]P[Ac5c][NMeChg][NMeD]-Morpholide; lactam N-11)", "IC50": 0.48}, {"smiles": "CC[C@H](C)[C@@H]1NC(=O)[C@H](C)N(C)C(=O)C[C@@H](C(=O)N2CCCCC2)N(C)C(=O)[C@H](C(C)C)N(C)C(=O)C2(CCCC2)NC(=O)[C@@H]2CCCN2C(=O)[C@H](CCc2ccc(C(F)(F)F)c(Cl)c2)NC(=O)[C@@H](C)N(C)C(=O)[C@H](Cc2ccccc2)N(C)C(=O)CN(C)C(=O)CN(C)C1=O", "note": "[Compound 1844] ([NMeA]I[Sar][Sar][NMeF][dNMeA][hPhe(3-Cl-4-CF3)]P[Ac5c][NMeV][NMeD]-Piperidide; lactam N-11)", "IC50": 17}, {"smiles": "CC[C@H](C)[C@@H]1NC(=O)[C@H](CC(C)C)N(C)C(=O)C[C@@H](C(=O)N2CCCCC2)N(C)C(=O)[C@H](C(C)C)N(C)C(=O)C2(CCCC2)NC(=O)[C@@H](Cc2ccccc2)N(C)C(=O)[C@H](CCc2ccc(C(F)(F)F)c(Cl)c2)NC(=O)CN(C)C(=O)[C@H](CC2CCCCC2)N(C)C(=O)[C@@H]2CCN2C(=O)[C@H](C)N(C)C1=O", "note": "[Compound 1442] ([NMeL]I[NMeA][Aze][NMeCha][Sar][hPhe(3-Cl-4-CF3)][dNMeF][Ac5c][NMeV][NMeD]-Piperidide; lactam N-11)", "IC50": 280}, {"smiles": "CC[C@H](C)[C@@H]1NC(=O)[C@H](CC(C)C)N(C)C(=O)C[C@H](C(=O)N2CCCC2)N(C)C(=O)[C@H]([C@@H](C)CC)N(C)C(=O)C2(CCCC2)NC(=O)[C@@H]2CCCN2C(=O)[C@H](CCc2ccc(C(F)(F)F)c(Cl)c2)NC(=O)CN(C)C(=O)[C@H](Cc2ccc(C(F)(F)F)cc2)N(C)C(=O)[C@@H]2CCN2C(=O)[C@H](C)N(C)C1=O", "note": "[Compound 1734] ([NMeL]I[NMeA][Aze][NMePhe(4-CF3)][Sar][hPhe(3-Cl-4-CF3)]P[Ac5c][NMeI][dNMeD]-Pyrrolidide; lactam N-11)", "IC50": 71}, {"smiles": "CC[C@H](C)[C@@H]1NC(=O)[C@H](C)N(C)C(=O)C[C@@H](C)NC(=O)[C@H](C2CCCC2)N(C)C(=O)C2(CCCC2)NC(=O)[C@@H]2CCCN2C(=O)[C@H](CCc2ccc(C(F)(F)F)c(Cl)c2)NC(=O)CN(C)C(=O)[C@H](Cc2ccccc2F)N(C)C(=O)[C@@H]2CCCN2C(=O)CN(C)C1=O", "note": "[Compound 1077] (cyclo([Ac5c][NMeGly(cPent)][d(β3hA)][NMeA]I[Sar]P[NMePhe(2-F)][Sar][hPhe(3-Cl-4-CF3)]P))", "IC50": 34}, {"smiles": "CC[C@H](C)[C@@H]1NC(=O)[C@H](C)N(C)C(=O)C[C@@H](C)N(C)C(=O)[C@H](CC(C)C)NC(=O)C(C)(C)N(C)C(=O)[C@H](CC(C)C)NC(=O)[C@H](CCc2ccc(C(F)(F)F)c(Cl)c2)NC(=O)CN(C)C(=O)[C@H](Cc2ccc(C)cc2)N(C)C(=O)[C@@H]2CCN2C(=O)[C@H](C)N(C)C1=O", "note": "[Compound 1402] (cyclo([Aze][NMePhe(4-Me)][Sar][hPhe(3-Cl-4-CF3)]L[NMeAib]L[NMedβ3hAla][NMeA]I[NMeA]))", "IC50": 57}, {"smiles": "CC(C)C[C@H]1C(=O)N[C@@H](CC2CCCCC2)C(=O)N(C)CC(=O)N(C)CC(=O)N(C)[C@@H](CC2CCCCC2)C(=O)N(C)CC(=O)N[C@@H](CCc2ccc(C(F)(F)F)c(Cl)c2)C(=O)N2CCC[C@H]2C(=O)NC2(CCCC2)C(=O)N(C)[C@@H](C(C)C)C(=O)N[C@H](C)CC(=O)N1C", "note": "[Compound 537] (cyclo([Ac5c][NMeV][d(β3hA)][NMeL][Cha][Sar][Sar][NMeCha][Sar][hPhe(3-Cl-4-CF3)]P))", "IC50": 82}]}]}
